Measured values published in PubChem BioAssay (NCI).
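Five concentrations, 48 hours, 96-well plates. At the GI50, growth is halved. TGI denotes the concentration required for complete inhibition of growth.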

How the values were obtained:
Assay in all cases: NCI-60 cell line screen, 48 h
SNB-75 CNS = tested on: SNB-75 CNS
KM12 colon = tested on: KM12 colon
LOX IMVI melanoma = tested on: LOX IMVI melanoma
MCF7 breast = tested on: MCF7 breast
CCRF-CEM leukemia = tested on: CCRF-CEM leukemia
HCT-15 colon = tested on: HCT-15 colon
SF-295 CNS = tested on: SF-295 CNS
UACC-62 melanoma = tested on: UACC-62 melanoma
A549 NSCLC = tested on: A549 NSCLC
UO-31 renal = tested on: UO-31 renal
SK-OV-3 ovarian = tested on: SK-OV-3 ovarian
MDA-MB-231 breast = tested on: MDA-MB-231 breast
NCI-H460 lung = tested on: NCI-H460 lung
RXF 393 renal = tested on: RXF 393 renal
T-47D breast = tested on: T-47D breast
HL-60(TB) leukemia = tested on: HL-60(TB) leukemia
PC-3 prostate = tested on: PC-3 prostate
SK-MEL-2 melanoma = tested on: SK-MEL-2 melanoma
MDA-MB-435 = tested on: MDA-MB-435
HOP-92 NSCLC = tested on: HOP-92 NSCLC
NCI-H522 lung = tested on: NCI-H522 lung
A498 renal = tested on: A498 renal
NCI-H23 lung = tested on: NCI-H23 lung
IGROV1 ovarian = tested on: IGROV1 ovarian
MOLT-4 leukemia = tested on: MOLT-4 leukemia
SN12C renal = tested on: SN12C renal
SK-MEL-28 melanoma = tested on: SK-MEL-28 melanoma
BT-549 breast = tested on: BT-549 breast
SR leukemia = tested on: SR leukemia
CAKI-1 renal = tested on: CAKI-1 renal
OVCAR-4 ovarian = tested on: OVCAR-4 ovarian
HT29 colon = tested on: HT29 colon
SF-539 CNS = tested on: SF-539 CNS
SF-268 CNS = tested on: SF-268 CNS
M14 melanoma = tested on: M14 melanoma
SNB-19 CNS = tested on: SNB-19 CNS
SW-620 colon = tested on: SW-620 colon
HCC-2998 colon = tested on: HCC-2998 colon
COLO 205 colon = tested on: COLO 205 colon
MALME-3M melanoma = tested on: MALME-3M melanoma
DU-145 prostate = tested on: DU-145 prostate
TK-10 renal = tested on: TK-10 renal
UACC-257 melanoma = tested on: UACC-257 melanoma
NCI-H226 lung = tested on: NCI-H226 lung
SK-MEL-5 melanoma = tested on: SK-MEL-5 melanoma
OVCAR-5 ovarian = tested on: OVCAR-5 ovarian
OVCAR-3 ovarian = tested on: OVCAR-3 ovarian
ACHN renal = tested on: ACHN renal
EKVX NSCLC = tested on: EKVX NSCLC

Compound: COc1cc(C2CC(c3cccc(Nc4ccncc4)c3)=NN2c2ccccc2)cc(OC)c1OC (stereo not drawn)
- GI50 (SNB-75 CNS): 1420 nM
- TGI (SNB-75 CNS): 3740 nM
- GI50 (KM12 colon): 1720 nM
- TGI (KM12 colon): 3460 nM
- GI50 (LOX IMVI melanoma): 1760 nM
- TGI (LOX IMVI melanoma): 3150 nM
- GI50 (MCF7 breast): 1840 nM
- TGI (MCF7 breast): 4040 nM
- GI50 (CCRF-CEM leukemia): 2930 nM
- TGI (CCRF-CEM leukemia): 8530 nM
- GI50 (HCT-15 colon): 1910 nM
- TGI (HCT-15 colon): 3750 nM
- GI50 (SF-295 CNS): 1810 nM
- TGI (SF-295 CNS): 3280 nM
- GI50 (UACC-62 melanoma): 1730 nM
- TGI (UACC-62 melanoma): 3180 nM
- GI50 (A549 NSCLC): 1730 nM
- TGI (A549 NSCLC): 3530 nM
- GI50 (UO-31 renal): 1420 nM
- TGI (UO-31 renal): 2810 nM
- GI50 (SK-OV-3 ovarian): 1780 nM
- TGI (SK-OV-3 ovarian): 3500 nM
- GI50 (MDA-MB-231 breast): 1520 nM
- TGI (MDA-MB-231 breast): 2890 nM
- GI50 (NCI-H460 lung): 1770 nM
- TGI (NCI-H460 lung): 3270 nM
- GI50 (RXF 393 renal): 1560 nM
- TGI (RXF 393 renal): 2950 nM
- GI50 (T-47D breast): 2120 nM
- TGI (T-47D breast): 6610 nM
- GI50 (HL-60(TB) leukemia): 1720 nM
- TGI (HL-60(TB) leukemia): 3650 nM
- GI50 (PC-3 prostate): 1790 nM
- TGI (PC-3 prostate): 4230 nM
- GI50 (SK-MEL-2 melanoma): 1960 nM
- TGI (SK-MEL-2 melanoma): 3800 nM
- GI50 (MDA-MB-435): 1610 nM
- TGI (MDA-MB-435): 3120 nM
- GI50 (HOP-92 NSCLC): 1410 nM
- TGI (HOP-92 NSCLC): 2940 nM
- GI50 (NCI-H522 lung): 1750 nM
- TGI (NCI-H522 lung): 3620 nM
- GI50 (A498 renal): 1630 nM
- TGI (A498 renal): 7140 nM
- GI50 (NCI-H23 lung): 1940 nM
- TGI (NCI-H23 lung): 3870 nM
- GI50 (IGROV1 ovarian): 1770 nM
- TGI (IGROV1 ovarian): 3610 nM
- GI50 (MOLT-4 leukemia): 1860 nM
- TGI (MOLT-4 leukemia): 4700 nM
- GI50 (SN12C renal): 1600 nM
- TGI (SN12C renal): 3050 nM
- GI50 (SK-MEL-28 melanoma): 1770 nM
- TGI (SK-MEL-28 melanoma): 3300 nM
- GI50 (BT-549 breast): 1800 nM
- TGI (BT-549 breast): 3560 nM
- GI50 (SR leukemia): 1560 nM
- TGI (SR leukemia): 3580 nM
- GI50 (CAKI-1 renal): 1550 nM
- TGI (CAKI-1 renal): 3010 nM
- GI50 (OVCAR-4 ovarian): 1710 nM
- TGI (OVCAR-4 ovarian): 3730 nM
- GI50 (HT29 colon): 1930 nM
- TGI (HT29 colon): 4530 nM
- GI50 (SF-539 CNS): 1710 nM
- TGI (SF-539 CNS): 3110 nM
- GI50 (SF-268 CNS): 1700 nM
- TGI (SF-268 CNS): 3450 nM
- GI50 (M14 melanoma): 1910 nM
- TGI (M14 melanoma): 4120 nM
- GI50 (SNB-19 CNS): 1640 nM
- TGI (SNB-19 CNS): 3290 nM
- GI50 (SW-620 colon): 1660 nM
- TGI (SW-620 colon): 3160 nM
- GI50 (HCC-2998 colon): 1800 nM
- TGI (HCC-2998 colon): 3300 nM
- GI50 (COLO 205 colon): 1800 nM
- TGI (COLO 205 colon): 4250 nM
- GI50 (MALME-3M melanoma): 1610 nM
- TGI (MALME-3M melanoma): 3030 nM
- GI50 (DU-145 prostate): 1790 nM
- TGI (DU-145 prostate): 3400 nM
- GI50 (TK-10 renal): 1790 nM
- TGI (TK-10 renal): 3420 nM
- GI50 (UACC-257 melanoma): 1950 nM
- TGI (UACC-257 melanoma): 3820 nM
- GI50 (NCI-H226 lung): 2110 nM
- TGI (NCI-H226 lung): 5270 nM
- GI50 (SK-MEL-5 melanoma): 1780 nM
- TGI (SK-MEL-5 melanoma): 3170 nM
- GI50 (OVCAR-5 ovarian): 2170 nM
- TGI (OVCAR-5 ovarian): 5230 nM
- GI50 (OVCAR-3 ovarian): 1660 nM
- TGI (OVCAR-3 ovarian): 3140 nM
- GI50 (ACHN renal): 1700 nM
- TGI (ACHN renal): 3110 nM
- GI50 (EKVX NSCLC): 1800 nM
- TGI (EKVX NSCLC): 4160 nM
